In data set [1] the test system is human colon cancer Co6044. Kind of data set: Antitumor activity in human colon xenograft Co6044 (intraperitoneal). The class given is in vivo. As to conditions: NCR female mice; intraperitoneally every third day five times; gemcitabine 120 mg/kg, gemcitabine-5′-elaidic acid ester 40 mg/kg. The procedure: (§1) Fragments of human colon cancers Co5776 and Co6044 are implanted subcutaneously in NCR female mice (7-8 mice/group). Gemcitabine (120 mg/kg) and gemcitabine-5′-elaidic acid ester (40 mg/kg) are administered intraperitoneally, every third day for five times.
Background: Xenograft models place foreign cells or tissue in a host animal.

Another data set has as its system pancreatic cancer. Description: Survival of pancreatic cancer patients receiving gemcitabine monotherapy (FIG. 8). Format: in vivo, human. Conditions: hypothetical plot. The procedure: Patients suffering from pancreatic cancer are administered gemcitabine monotherapy. Post mortem studies of the patients' tumors determine the levels of hENT1 expression in the tumors. FIG. 8 depicts a Kaplan-Meier plot of survival for patients receiving the gemcitabine monotherapy Patients with high hENT1 expression (dotted line) outperform those with areas of hENT1-low tumor.

The test system of another data set is CEM cells. Description: Intracellular dFdCTP level in CEM cells with or without dipyridamole (HPLC). The class given is cell-based, human. Conditions: 10 μM. The procedure:
hENT1 can inhibited in vitro by various agents including dipyridamole, NBMPR, and NBI. In order to test whether gemcitabine-5′-elaidate entry into the cells is independent of a nucleoside transporter such as hENT1, dipyridamole is used to block hENT1. The intracellular level of dFdCTP is determined in CEM cells after 60 minutes exposure to either dFdC or gemcitabine-5′-elaidate, with or without the addition of dipyridamole (DP). The compounds are administered at 10 μM, and the triphosphates are determined using HPLC. Deamination is blocked using tetrahydrouridine.

The test system of another data set is xenograft mouse models. Kind of data set: Correlation of hENT1 mRNA levels and sensitivity to gemcitabine in xenograft mouse models (FIG. 6). Format: in vivo. As to conditions: higher expression level of hENT1 mRNA. From the text: FIG. 6 depicts the correlation of hENT1 mRNA levels and sensitivity to gemcitabine in xenograft mouse models. There are many nucleoside transporters and each may move nucleoside analog drugs across the membrane with unique kinetics. A cancer cell which has lower levels nucleoside transporters will be less efficient at transporting these drugs into the cells, reducing the efficacy of the drug. For example a tumor that has low levels of hENT1 is less sensitive to treatment with gemcitabine. FIG. 6 depicts the correlation of hENT1 mRNA levels and sensitivity to gemcitabine in xenograft mouse models. In some aspects low expression of hENT1 on pancreatic tumor cells linked to poor survival after gemcitabine therapy. In addition, hENT1 deficient tumor cells are resistant to pyrimidine nucleoside analogs in vitro. For example, hENT1 mRNA levels are co-related to the sensitivity to gemcitabine in xenograft mouse models.

The test system of data set [2] is human colon cancer Co5776. Kind of data set: Antitumor activity in human colon xenograft Co5776. Format: in vivo. Conditions: NCR female mice; intraperitoneally every third day five times; gemcitabine 120 mg/kg, gemcitabine-5′-elaidic acid ester 40 mg/kg. The procedure:
as §1
NCr female mice implanted subcutaneously with human colon carcinoma fragments, Co5776, are treated intraperitoneally. Two different schedules of gemcitabine-5′-elaidic acid ester are administered, once weekly times 2 (Days 11 and 18), and every third day times 5 (Days 11, 14, 17, 20, and 23). Antitumor activity of gemcitabine-5′-elaidic acid ester is similar for 150 mg/kg once weekly, administered twice or 40 mg/kg every third day administered five times.

Data set [3] concerns Co-26 murine colon cancer cells. Description: Antitumor effect in Co-26 liver metastasis model. The class given is in vivo. As to conditions: single dose. The procedure: Antitumor effect of single dose of gemcitabine-5′-elaidic acid ester or gemcitabine is tested in Balb/C female mice injected with Co-26 murine colon cancer cells in the spleen (a liver metastasis model). […] The activity of gemcitabine is similar.

The test system of data set [4] is CCRF-CEM human leukemia cell line. Description: Triphosphate accumulation and retention in CCRF-CEM cells. The class given is cell-based. The text has this: Drugs: Gemcitabine-5′-elaidate was provided by Clavis Pharma (Oslo, Norway), tetra hydro uridine (THU) was from Calbiochem (Merck, Darmstadt, Germany), dipyridamole and ara-C were from Sigma-Aldrich (St. Louis, Mo., USA) and dFdC was from Eli-Lilly (Indianapolis, Ind., USA). The radioactively labeled drugs were obtained from Moravek (Brea, Calif., USA); the drugs were labeled with tritium on the 5-C site of the base. A mix of radioactive and non-radioactive compounds was made for exposure of cells; dFdC and CP-4126 were used at a final concentration of 8.9 μM and a specific activity of 586 and 391 mCi/mmol, respectively.
Cell lines: For the experiments the CCRF-CEM human leukemia cell line and its dCK negative variant (CEM/dCK−) were used. The cell lines were cultured in RPMI medium (BioWhittaker, Verviers, Belgium) supplemented with 10% fetal calf serum (PAA laboratories, Pasching, Austria) and HEPES buffer (BioWhittaker). Of the nucleoside influx transporters, the CEM cell line only expresses the equilibrative nucleoside transporter (hENT) and not the concentrative nucleoside transporter (hCNT). Belt et al. Adv. Enzyme Regul., 1993, 33, 235-52. Dipyridamole (DP) was used to inhibit the influx of the drugs by hENT. In order to get a clean picture, THU was also added to inhibit deamination of ara-C and dFdC.
Triphosphate accumulation: Cells were treated with 1 and 10 μM of dFdC, while for the lipophilic analogs 10 and 100 μM was used. The cells were incubated for 60 minutes and retention of the triphosphates was investigated after 60 and 120 minutes incubation in drug-free medium. Dipyridamole was added to inhibit drug influx by the hENT transporter. After incubation the cell pellet was resuspended in ice-cold PBS and incubated for 20 minutes at 4° C. with 40% trichloroacetic acid. After centrifugation (10,000 g, 10 min, 4° C.) the supernatant was treated with a 2-fold excess of trioctylamine/1,1,2-trichlorotrifluorethane (1:4) and spun down (10,000 g, 1 min) and the aqueous phase was stored at −20° C. until analysis by HPLC on a Whatman Partisphere SAX column (GE healthcare, Chalfont St. Giles, UK) using gradient (dFdC-TP) elution as described earlier. Noordhuis et al., Leuk. Res., 1996, 20, 127-34; Ruiz van Haperen, et al., Biochem. Pharmacol., 1994, 48, 1327-39.

In a further data set the test system is Murine Lewis Lung cells. As to conditions: BDF1 mice; intravenously on Day 1.

Protocol for Murine Lewis Lung cells: Murine Lewis Lung cells are intravenously injected to BDF1 mice. Mean survival as well as body weight change and tumor free survivors on Day 72 are endpoints of the study. […] Treatment is administered once daily intraperitoneally on Days 1-4 and 7-11.

Regarding `Nc1ccn([C@@H]2O[C@H](CO)[C@@H](O)C2(F)F)c(=O)n1` [gemcitabine, 2′2′-difluorodeoxycytidine], the antitumor effect entry in data set [1] and in data set [2] was “Significant antitumor effect” each time. Further, the “survival (Kaplan-Meier), high hENT1 vs hENT1-low tumor” value in the data set on pancreatic cancer was “outperform”. In the data set with CEM cells (60 minutes exposure, with dipyridamole, tetrahydrouridine present), the “intracellular triphosphate (dFdCTP) level with DP” value was “below level of detection”. For the same molecule, the “level of triphosphate over time in the absence of DP” value in the data set on CEM cells (after exposure, without dipyridamole) is listed as “decreases with time”. In addition, the “response in relation to hENT1 mRNA expression level” value in the data set on xenograft mouse models was “better response”. Also, the “activity compared with gemcitabine” value in data set [3] is given as “similar”. Also, the “retention of dFdC-TP concentration after washing away the drugs” value in data set [4] (60 and 120 minutes in drug-free medium) was “decreased after washing away the drugs”. For the same molecule, the “triphosphates formed after 60 minutes incubation” value in data set [4] (dFdC 1 and 10 μM, lipophilic analog 10 and 100 μM) was “more triphosphates were formed”. In data set [4] (hENT inhibited by dipyridamole), the “effect of dipyridamole on dFdC-TP accumulation” value was “abolishing accumulation of dFdC-TP”.

As for `O=P1(N(CCCl)CCCl)NCCCO1` (stereo not drawn) [CTX, Cyclophosphamide], in the data set on Murine Lewis Lung cells, the antitumor activity entry is reported as “highly active” and the toxicity entry is recorded as “non-toxic”.
